In PubChem BioAssay AID248 (DTP/NCI, 2004):
“And” between values parts separate entries of the source, which are not always exact repeats. Identical values can stand only once. Inconclusive results and toxic doses are left out. No stated cut-off is given here; in the data, active means T/C of 150% or more; inactive means T/C below 125%.

System: L1210 leukemia ip in BDF1 mice, survival T/C
Assay: NCI In Vivo Anticancer Drug Screen. Data for tumor model L1210 Leukemia (intraperitoneal) in B6D2F1 (BDF1) mice
Conditions: endpoint: mean survival time, higher = longer survival
Procedure, shortened: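 Antitumor effect is assessed in tumor-bearing animals. Survival in the compound arm is compared with a vehicle-dosed control arm and expressed as their quotient.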

[1] = dose: 100.0 mg/kg/injection, schedule: Q04DX003 (ip), vehicle: saline with Tween-80
[2] = dose: 200.0 mg/kg/injection, schedule: Q04DX003 (ip), vehicle: saline with Tween-80
[3] = dose: 400.0 mg/kg/injection, schedule: Q04DX003 (ip), vehicle: saline with Tween-80
[4] = dose: 100.0 mg/kg/injection, schedule: Q01DX009 (ip), vehicle: saline with Tween-80
[5] = dose: 200.0 mg/kg/injection, schedule: Q01DX009 (ip), vehicle: saline with Tween-80
[6] = dose: 100.0 mg/kg/injection, schedule: Q04DX003 (ip), vehicle: Klucel (hydroxypropylcellulose) (HPC)
[7] = dose: 200.0 mg/kg/injection, schedule: Q04DX003 (ip), vehicle: Klucel (hydroxypropylcellulose) (HPC)
[8] = dose: 400.0 mg/kg/injection, schedule: Q04DX003 (ip), vehicle: Klucel (hydroxypropylcellulose) (HPC)
[9] = dose: 100.0 mg/kg/injection, schedule: Q01DX001 (ip), vehicle: saline
[10] = dose: 200.0 mg/kg/injection, schedule: Q01DX001 (ip), vehicle: saline
[11] = dose: 400.0 mg/kg/injection, schedule: Q01DX001 (ip), vehicle: saline
[12] = dose: 100.0 mg/kg/injection, schedule: Q01DX009 (ip), vehicle: saline
[13] = dose: 100.0 mg/kg/injection, schedule: Q04DX003 (ip), vehicle: saline
[14] = dose: 200.0 mg/kg/injection, schedule: Q04DX003 (ip), vehicle: saline
[15] = dose: 400.0 mg/kg/injection, schedule: Q04DX003 (ip), vehicle: saline
[16] = dose: 100.0 mg/kg/injection, schedule: Q01DX009 (ip), vehicle: Klucel (hydroxypropylcellulose) (HPC)
[17] = dose: 200.0 mg/kg/injection, schedule: Q01DX009 (ip), vehicle: Klucel (hydroxypropylcellulose) (HPC)
[18] = dose: 400.0 mg/kg/injection, schedule: Q01DX009 (ip), vehicle: Klucel (hydroxypropylcellulose) (HPC)
[19] = dose: 50.0 mg/kg/injection, schedule: Q01DX009 (ip), vehicle: Klucel (hydroxypropylcellulose) (HPC)

Measured: T/C

CC1(C)OC2C(C=O)OC(n3cnc4c(N)ncnc43)C2O1 (stereo unspecified)
inactive: dose: 100.0 mg/kg/injection, schedule: Q04DX003 (ip), vehicle: alcohol 102 % of control | dose: 200.0 mg/kg/injection, schedule: Q04DX003 (ip), vehicle: alcohol 102 % of control | dose: 400.0 mg/kg/injection, schedule: Q04DX003 (ip), vehicle: alcohol 96 % of control

COc1ccc([N+](=O)[O-])c2c1CONC2(C)C(=O)O (stereo unspecified)
inactive: dose: 100.0 mg/kg/injection, schedule: Q04DX003 (ip), vehicle: acetone 98 % of control | dose: 200.0 mg/kg/injection, schedule: Q04DX003 (ip), vehicle: acetone 95 % of control | dose: 400.0 mg/kg/injection, schedule: Q04DX003 (ip), vehicle: acetone 98 % of control

CC(CO)CCC1OC2CC3C4CCC5CC(O)CCC5(C)C4CCC3(C)C2C1C (stereo unspecified)
inactive: dose: 100.0 mg/kg/injection, schedule: Q04DX002 (ip), vehicle: Klucel (hydroxypropylcellulose) (HPC) 86 % of control | dose: 200.0 mg/kg/injection, schedule: Q04DX002 (ip), vehicle: Klucel (hydroxypropylcellulose) (HPC) 95 % of control | dose: 400.0 mg/kg/injection, schedule: Q04DX002 (ip), vehicle: Klucel (hydroxypropylcellulose) (HPC) 95 % of control

C=CCOc1c(C)cc(C)cc1/C=C/C
inactive: [1] 94 % of control | [2] 97 % of control | [3] 96 % of control

CCCC(=O)Nc1ccc(O)cc1
inactive: [4] 100 % of control | [1] 96 % of control | [5] 110 % of control | [2] 101 % of control | dose: 266.0 mg/kg/injection, schedule: Q01DX009 (ip), vehicle: saline with Tween-80 109 % of control | [3] 106 % of control

CC1(C(=O)O)C2C3C=CC(C3)C21 (stereo unspecified)
inactive: dose: 100.0 mg/kg/injection, schedule: Q01DX001 (ip), vehicle: saline with Tween-80 97 % of control | dose: 200.0 mg/kg/injection, schedule: Q01DX001 (ip), vehicle: saline with Tween-80 93 % of control | dose: 400.0 mg/kg/injection, schedule: Q01DX001 (ip), vehicle: saline with Tween-80 92 % of control

CC(=O)[O][Hg][c]1c(C)c(C)cc(C)c1C
inactive: dose: 6.25 mg/kg/injection, schedule: Q04DX003 (ip), vehicle: saline with Tween-80 93 % of control | dose: 12.5 mg/kg/injection, schedule: Q04DX003 (ip), vehicle: saline with Tween-80 87 % of control | dose: 25.0 mg/kg/injection, schedule: Q04DX003 (ip), vehicle: saline with Tween-80 95 % of control

N#Cc1c(/N=C/c2ccc3c(c2)CCC3)oc(-c2ccccc2)c1-c1ccccc1
inactive: [6] 103 % of control | [7] 97 % of control | [8] 94 % of control

O=P(Nc1ccc(Cl)c(Cl)c1)(N1CCCCC1)N1CCCCC1
inactive: [6] 93 % of control | [7] 91 % of control | [8] 93 % of control

Clc1ccc(/C=C/c2ccccc2)cc1
inactive: dose: 44.0 mg/kg/injection, schedule: Q01DX001 (ip), vehicle: other 96 % of control | dose: 66.0 mg/kg/injection, schedule: Q01DX001 (ip), vehicle: other 105 % of control | dose: 100.0 mg/kg/injection, schedule: Q01DX001 (ip), vehicle: other 100 % of control | dose: 150.0 mg/kg/injection, schedule: Q01DX001 (ip), vehicle: other 97 % of control | dose: 200.0 mg/kg/injection, schedule: Q01DX001 (ip), vehicle: other 100 % of control | dose: 400.0 mg/kg/injection, schedule: Q01DX001 (ip), vehicle: other 111 % of control

CC1C(C(N)=O)C(=O)OC1(C)C (stereo unspecified)
inactive: [9] 89 % of control | [10] 104 % of control | [11] 98 % of control

Cc1ccc(O)c(N=O)c1.[Co]
inactive: dose: 50.0 mg/kg/injection, schedule: Q01DX001 (ip), vehicle: saline 97 % of control | [9] 109 % of control | [10] 115 % of control

CN1CCC=Cc2ccccc21
inactive: [12] 97 % of control | [13] 92 % of control | [14] 95 % of control | [15] 90 % of control

O=C(O)CC(c1ccccc1)c1ccccc1
inactive: [16] 98 % of control | [6] 94 % of control | [17] 97 % of control | [7] 107 % of control | [18] 109 % of control | [8] 107 % of control

CCOC(=O)C1=NN(c2ccccc2)C(=O)C1N=Nc1ccc(S(=O)(=O)Nc2onc(C)c2C)cc1 (stereo unspecified)
inactive: [9] 104 % of control | [10] 98 % of control | [11] 107 % of control

CC(C)(C)OC(=O)N/N=C/c1ccc2c(c1)CCC2
inactive: [1] 100 % of control | [2] 100 % of control | [3] 94 % of control

CC(=O)OCCC/C(=C\c1ccc2ccccc2c1)[N+](=O)[O-]
inactive: dose: 100.0 mg/kg/injection, schedule: Q01DX001 (ip), vehicle: carboxymethylcellulose (CMC) 98 % of control | dose: 200.0 mg/kg/injection, schedule: Q01DX001 (ip), vehicle: carboxymethylcellulose (CMC) 93 % of control | dose: 400.0 mg/kg/injection, schedule: Q01DX001 (ip), vehicle: carboxymethylcellulose (CMC) 89 % of control

CCC(C)c1ccccc1OC(=O)Nc1ccc(OC)cc1 (stereo unspecified)
inactive: [19] 105 % of control | [16] 92 % of control | [6] 96 % of control | [17] 95 % of control | [7] 94 % of control | [8] 100 % of control

O=C(c1ccccc1[N+](=O)[O-])C(Br)C(Br)c1ccc2c(c1)OCO2 (stereo unspecified)
inactive: [4] 97 % of control and 87 % of control | [5] 94 % of control and 95 % of control | dose: 400.0 mg/kg/injection, schedule: Q01DX009 (ip), vehicle: saline with Tween-80 97 % of control

CCCCCCCCCCCCn1cnc2c(N)ncnc21
inactive: dose: 12.5 mg/kg/injection, schedule: Q01DX005 (ip), vehicle: other 101 % of control | dose: 25.0 mg/kg/injection, schedule: Q01DX005 (ip), vehicle: other 96 % of control | dose: 50.0 mg/kg/injection, schedule: Q01DX005 (ip), vehicle: other 95 % of control | dose: 100.0 mg/kg/injection, schedule: Q01DX005 (ip), vehicle: other 96 % of control | dose: 200.0 mg/kg/injection, schedule: Q01DX005 (ip), vehicle: other 93 % of control

CCS(=O)(=O)N(CC(=O)O)Cc1ccccc1
inactive: dose: 50.0 mg/kg/injection, schedule: Q01DX009 (ip), vehicle: saline 100 % of control | [12] 104 % of control | [13] 100 % of control | dose: 200.0 mg/kg/injection, schedule: Q01DX009 (ip), vehicle: saline 93 % of control | [14] 96 % of control | dose: 300.0 mg/kg/injection, schedule: Q01DX009 (ip), vehicle: saline 95 % of control | [15] 94 % of control

CCC(C(=O)O)N1C(=O)C2C3CCC(C3)C2C1=O (stereo unspecified)
inactive: [1] 98 % of control | [2] 103 % of control | [3] 103 % of control

O=c1[nH]c(=O)c2[nH]c(N=Nc3ccc(S(=O)(=O)N(CCCl)CCCl)cc3)nc2[nH]1
inactive: [19] 97 % of control | [16] 92 % of control | [17] 94 % of control

CNC(=O)Oc1c(C)cccc1C
inactive: dose: 100.0 mg/kg/injection, schedule: Q04DX002 (ip), vehicle: saline with Tween-80 103 % of control | dose: 200.0 mg/kg/injection, schedule: Q04DX002 (ip), vehicle: saline with Tween-80 106 % of control | dose: 400.0 mg/kg/injection, schedule: Q04DX002 (ip), vehicle: saline with Tween-80 95 % of control

CN(C)c1ccc(C=O)c([N+](=O)[O-])c1
inactive: [16] 97 % of control | [17] 101 % of control | [18] 105 % of control

O=Cc1ccc2c(c1)c1ccccc1n2C1OC(CO)C(O)C(O)C1O (stereo unspecified)
inactive: dose: 60.0 mg/kg/injection, schedule: Q04DX002 (ip), vehicle: DMSO 102 % of control | dose: 120.0 mg/kg/injection, schedule: Q04DX002 (ip), vehicle: DMSO 97 % of control
